Assay results from patent publication US12590322B2, “Devices and methods for mitochondria replacement and for generating cellular therapeutics” (NanoCav, LLC, priority 2018, dated 2026).

Columns and labels:
BJ cells = assay: mtDNA depletion by ddC in BJ primary fibroblasts, qPCR verification; assay type: cell-based, human; settings: for mtDNA levels, % of initial untreated levels: 2.5 μM or 5 μM ddC
Method: FIGS. 11A-11B show generation of mtDNA depleted primary fibroblast lines in BJ cells. FIG. 11A is a bar chart showing that a minimum concentration of 2.5 μM of 2′,3′ dideoxycytidine (ddC), a reverse transcriptase inhibitor, was required to deplete mtDNA to below 5% of the original level, three weeks from initiation of treatment. […] FIG. 11B is a line plot showing the information of FIG. 11A.
(§1) A 1000× stock of 2′,3′-dideoxycytidine (ddC, Sigma, Cat. #D5782) was prepared in water. BJ, ADF, and NDF cells cultured in complete media with 50 µg/ml uridine were added ddC to an appropriate final concentration. Cells were passaged every 3-4 d and fresh ddC was added over the course of 3 weeks. After ddC treatment, total DNA was extracted (Qiagen, Cat. #69504) and mtDNA quantified using SYBR Select Master Mix for CFX (Life Technologies, Cat. #4472942). mtDNA-encoded ND1 was probed with the following primers: forward: […] (SEQ ID NO: 1); reverse: […] (SEQ ID NO: 2). mtDNA levels were normalized to nuclear-encoded GAPDH using the following primers: forward: […] (SEQ ID NO: 3); reverse: […] (SEQ ID NO: 4). qPCR was run on a BioRad CFX Thermal Cycler using the following protocol: 1) 50° C. for 2 min, 2) 95° C. for 2 min, 3) 40 cycles-95° C. for 10 s and 60° C. for 45 s. Samples were compared by calculating ΔΔCT and fold differences.

[1] = system: Adult and neonatal human dermal fibroblast (HDF) cells; assay: mtDNA depletion by ddC in human dermal fibroblasts; assay type: cell-based; settings: 5 μM ddC, after sixteen days
From the text: FIGS. 12A-12C show generation of mtDNA depleted human dermal fibroblasts cells. […] 143 Rho Null (lacking mtDNA) and a control are also shown. […] GAPDH expression, used as a reference gene, was also shown in adult and neonatal human dermal fibroblast (HDF) cells. FIG. 12B is a table showing depletion of mtDNA in HDF adult and HDF neonatal cells at days sixteen and thirty. FIG. 12C is a line plot showing the data of FIG. 12B.
as §1

BJs = assay: Mutation signature comparison of ddC-treated BJs vs BJ parent, 30X whole genome sequencing; assay type: cell-based, human; settings: for # SNVs / % of Total: 5 μM ddC treated BJs vs BJ parent
Method: A comparison of mutation signatures between 5 μM-ddC treated BJs and the BJ parent with 30× whole genome sequencing.

[2] = 5 μM ddC-treated BJs vs. BJ parent
[3] = ddC-treated cells, whole genome sequencing

Nc1ccn([C@H]2CC[C@@H](CO)O2)c(=O)n1 [ddC, 2′,3′-dideoxycytidine]
mtDNA levels, % of initial untreated levels (BJ cells; three weeks from initiation of treatment): below 0.5%
mtDNA levels, % of initial untreated levels (BJ cells; two weeks): below 2%
minimum concentration required to deplete mtDNA to below 5% of the original level (BJ cells; BJ cells, three weeks from initiation of treatment): 2.5 µM
mtDNA depletion [1]: mtDNA depletion
Mutation rate (BJs; [2]): 0.6/MB
Non-synonymous mutations (BJs; [2]): 26
# SNVs (BJs; Signature 5): 2,230
% of Total (BJs; Signature 5): 42.0%
# SNVs (BJs; Signature 8): 873
% of Total (BJs; Signature 8): 16.0%
# SNVs (BJs; Signature 9): 854
% of Total (BJs; Signature 9): 16.0%
# SNVs (BJs; Signature 16): 200
% of Total (BJs; Signature 16): 4.0%
# SNVs (BJs; Signature 18): 471
% of Total (BJs; Signature 18): 9.0%
abundance of non-synonymous mutations (BJs; [3]): low abundance
changes in DNA copy number (BJs; [3]): no changes in DNA copy number
chromosomal breaks (BJs; [3]): no chromosomal breaks
